This is an account of results in ChEMBL document CHEMBL1148796 (J Med Chem, 2007).

pEC50: −log10 of the molar value.

In data set [1] the test system is Human immunodeficiency virus 1. As to the kind of experiment: Antiviral activity against HIV1 RT K103N-Y181C mutant in MT4 cells by MTT assay. It counts as functional. The conditions noted are these: Human immunodeficiency virus 1, MT4; read-out: ED50 (the source's name). (In general: Formazan colour is commonly taken as a measure of viable cells.)
For data set [2], the system named is Human immunodeficiency virus 1. As to the kind of experiment: Antiviral activity against HIV1 3B in MT4 cells by MTT assay. It counts as functional. The conditions noted are these: Human immunodeficiency virus 1, 3B, read-out: ED50 (the source's name).
A short description of data set [3]: Cytotoxicity against MT4 cells by MTT assay. Type of data set: cell-based. The conditions noted are these: human, read-out: TC50 (the source's name).
In data set [4] the test system is Human immunodeficiency virus 1. As to the kind of experiment: Antiretroviral activity against wild type HIV1 in MT4 cells by MTT assay. It counts as functional. The conditions noted are these: Human immunodeficiency virus 1, MT4; read-out: ED50 (the source's name).
For data set [5], the system named is Human immunodeficiency virus 1. As to the kind of experiment: Antiviral activity against HIV1 RT Y181C mutant in MT4 cells by MTT assay. It counts as functional. The conditions noted are these: Human immunodeficiency virus 1, MT4; read-out: ED50 (the source's name).
Data set [6] in a line: Cytotoxicity against mock-infected C8166 cells by MTT assay. Type of data set: cell-based. The conditions noted are these: human, read-out: TC50 (the source's name).
The nature of data set [7]: Selectivity index, ratio of TC50 for C8166 cells to ED50 for HIV1. It counts as functional.
Data set [8] has as its system Human immunodeficiency virus 1. The experiment in a line: Antiretroviral activity against HIV1 wild type in C8166 cells by MTT assay. It counts as functional. The conditions noted are these: Human immunodeficiency virus 1, C8166; read-out: ED50 (the source's name).
Data set [9] in a line: Selectivity index, ratio of TC50 for MT4 cells to ED50 for HIV1. Type of data set: functional.
The subject of data set [10] is Human immunodeficiency virus 1. The experiment in a line: Antiviral activity against wild type HIV1 3B in lymphocytes assessed as reduction of p24 antigen production. Type of data set: functional. The conditions noted are these: Human immunodeficiency virus 1, 3B; read-out: ED50 (the source's name).
In data set [11] the test system is Human immunodeficiency virus 1. The experiment in a line: Antiviral activity against HIV1 RT AB1 mutant in lymphocytes assessed as reduction of p24 antigen production. Type of data set: functional. The conditions noted are these: read-out: ED50 (the source's name).
A short description of data set [12]: Cytotoxicity against lymphocytes. Type of data set: cell-based, Lymphocyte. The conditions noted are these: human, read-out: TC50 (the source's name).
For data set [13], the system named is Human immunodeficiency virus 1. The experiment in a line: Antiviral activity against HIV1 RT 112 mutant in lymphocytes assessed as reduction of p24 antigen production. It counts as functional. The conditions noted are these: read-out: ED50 (the source's name).
A short description of data set [14]: Selectivity index, ratio of TC50 for macrophages to ED50 for HIV1 3BBa-L. Type of data set: functional.
Data set [15] has as its system Human immunodeficiency virus type 1 reverse transcriptase (Human immunodeficiency virus 1), Q72547 [K103N].
Description: Inhibition of HIV1 RT K103N mutant
Data set [16] has as its system Human immunodeficiency virus type 1 reverse transcriptase (Human immunodeficiency virus 1), Q72547 [L100I].
Description: Inhibition of HIV1 RT L100I mutant
The test system of data set [17] is Human immunodeficiency virus 1. The experiment in a line: Antiretroviral activity against HIV1 3BBa-L in macrophages assessed as reduction of p24 antigen production. It counts as functional. The conditions noted are these: Human immunodeficiency virus 1, 3BBa-L; read-out: ED50 (the source's name).
For data set [18], the system named is Human immunodeficiency virus type 1 reverse transcriptase (Human immunodeficiency virus 1), Q72547 [Y181I].
Data set [19] in a line: Selectivity index, ratio of TC50 for lymphocytes to ED50 for HIV1 3B. It counts as functional, Homo sapiens.
A short description of data set [20]: Selectivity index, ratio of TC50 for lymphocytes to ED50 for HIV1 RT AB1 mutant. Type of data set: functional.
The target in data set [21] is Human immunodeficiency virus type 1 reverse transcriptase (Human immunodeficiency virus 1) (UniProt Q72547).
Description: Inhibition of wild type HIV1 RT
Data set [22] in a line: Cytotoxicity against macrophages. Type of data set: cell-based, Macrophage. The conditions noted are these: human, read-out: TC50 (the source's name).
The nature of data set [23]: Selectivity index, ratio of TC50 for lymphocytes to ED50 for HIV1 RT 112 mutant. It counts as functional.

Take `Cc1cc(C)cc(S(=O)(=O)c2c(C(N)=O)[nH]c3cc(F)c(Cl)cc23)c1`: the pEC50 was under 4.70 in data set [1]; 7.92 in data set [2]; 7.92 in [4]; 7.30 in data set [5]; 8.00 in [8]. For the same molecule, the CC50 in [3] and in [6] was over 20000 nM in each case. Besides, the Selectivity index in [7] was over 2000; in [9], over 1667.
Turning to `Cc1cc(C)cc(S(=O)(=O)c2c(C(N)=O)[nH]c3c(F)cc(F)cc23)c1`, the pEC50 is under 4.70 in [1]; 8.15 in data set [2]; 8.15 in [4]; 5.82 in data set [5]; 7.60 in [8]. Also, the CC50 in data set [3] and in data set [6] was over 20000 nM throughout. Moreover, the Selectivity index in data set [7] was over 800; in data set [9], over 2857.
Take `Cc1cc(C)cc(S(=O)(=O)c2c(C(N)=O)[nH]c3cc(Cl)c(F)cc23)c1`: the pEC50 was 4.92 in data set [1]; 7.30 in [2]; 7.30 in [4]; 6.15 in [5]; 7.30 in [8]. Besides, the CC50 was 18000 nM in [3] and over 20000 nM in [6]. The figures for the Selectivity index in data set [7] and in data set [9] were over 400 and 360, respectively.
As to `NC(=O)c1[nH]c2cc(F)c(F)cc2c1S(=O)(=O)c1ccccc1`, the pEC50 in data set [1] was under 4.70; in data set [2], 7.80; in data set [4] it was 7.80; in data set [5], 5.09; in data set [8] it was 7.70. Besides, the CC50 in data set [3] and in data set [6] was over 20000 nM throughout. For the same molecule, the Selectivity index in data set [7] is listed as over 1000; in [9], over 1250.
With `Cc1cc(C)cc(S(=O)(=O)c2c(C(N)=O)[nH]c3cc(F)c(F)cc23)c1`, the pEC50 was under 4.70 in [1]; 7.70 in data set [2]; 7.70 in data set [4]; 6.40 in data set [5]; 7.52 in data set [8]. Also, the CC50 in [3] and in data set [6] was over 20000 nM in each case. The Selectivity index is reported as over 667 in data set [7] and over 1000 in data set [9].
For `Cc1cc(C)cc(S(=O)(=O)c2c(C(N)=O)[nH]c3c(Cl)cc(Cl)cc23)c1`, the pEC50 in data set [1] was under 4.70; in data set [2], 7.68; in data set [4], 7.68; in [5], 5.38; in [8] it was 7.92. Besides, the CC50 in [3] and in data set [6] was over 20000 nM in each case. The values for the Selectivity index in [7] and in [9] were over 1667 and over 952, respectively.
`NC(=O)c1[nH]c2cc(Cl)c(Cl)cc2c1S(=O)(=O)c1ccccc1`: the pEC50 in data set [1] was under 4.70; in [2], 7.10; in data set [4], 7.10; in data set [5] it was 5.77; in data set [8] it was 7.00. The CC50 in data set [3] and in data set [6] was over 20000 nM in each case. Moreover, the Selectivity index is given as over 200 in data set [7] and over 250 in data set [9].
For the molecule `O=C1Nc2ccc(Cl)cc2[C@@](C#CC2CC2)(C(F)(F)F)O1` [EFAVIRENZ], the pEC50 in data set [1] was 6.70; in data set [5], 8.00; in data set [10], 8.15; in data set [11] it was under 4.70; in data set [13], under 4.70. The CC50 in [12] was over 20000 nM.
As for `Cc1cc(C)cc(S(=O)(=O)c2c(C(N)=O)[nH]c3ccc(Cl)c(F)c23)c1`, the pEC50 in [1] is 6.52; in data set [2] it was 9.30; in data set [4], 9.30; in data set [17] it was 8.00; in [5], 8.40; in data set [10], 8.10. The pEC50 was 7.92 in [11], 9.10 in data set [8] and 8.00 in [13]. In addition, the Selectivity index in data set [14] is over 2000; in data set [19], over 2500; in [7], over 25000; in [20], over 1667; in data set [9], over 40000; in data set [23] it was over 2000. Moreover, the CC50 in data set [3], in [6], in data set [12] and in data set [22] was over 20000 nM each time. Moreover, the ID50 was 6 nM in data set [15], 2 nM in data set [16], 29 nM in data set [18] and 3 nM in [21].
Turning to `Cc1cc(C)cc(S(=O)(=O)c2c(C(N)=O)[nH]c3cc(Cl)c(Cl)cc23)c1`, the pEC50 in data set [1] is under 4.70; in data set [2], 8.00; in data set [4] it was 8.00; in [5] it was 6.00; in data set [8], 7.82. Moreover, the CC50 in data set [3] and in data set [6] was over 20000 nM in each case. Besides, the Selectivity index in [7] is over 1333; in data set [9], over 2000.
As to `Cc1cc(C)cc(S(=O)(=O)c2c(C(N)=O)[nH]c3ccc(F)c(F)c23)c1`, the pEC50 in data set [1] is 5.92; in data set [2] it was 9.00; in data set [4], 9.00; in data set [17] it was 7.64; in data set [5], 7.30; in [10] it was 7.70. For the same molecule, the pEC50 was 7.08 in data set [11], 8.52 in data set [8] and 6.89 in data set [13]. The Selectivity index in data set [14] is over 870; in [19], over 1000; in [7] it was over 6667; in data set [20] it was over 238; in data set [9], over 20000; in data set [23], over 154. Besides, the CC50 in [3], in data set [6], in data set [12] and in data set [22] was over 20000 nM throughout. For the same molecule, the ID50 in data set [15] is 1000 nM; in data set [16] it was 90 nM; in [18] it was 2050 nM; in [21], 1.7 nM.
Turning to `NC(=O)c1[nH]c2ccc(F)c(F)c2c1S(=O)(=O)c1ccccc1`, the pEC50 in data set [1] is 4.74; in data set [2], 8.10; in data set [4], 8.10; in data set [5], 6.22; in data set [8], 8.00. In addition, the CC50 in data set [3] and in data set [6] was over 20000 nM throughout. The Selectivity index in data set [7] is on record as over 2000; in [9] it was over 2500.
Turning to `Cc1cc(C)cc(S(=O)(=O)c2c(C(N)=O)[nH]c3ccc(F)c(Cl)c23)c1`, the pEC50 in data set [1] is under 4.70; in [2], 8.10; in data set [4] it was 8.10; in data set [5], 5.66; in data set [8], 8.05. Further, the CC50 in data set [3] and in data set [6] was over 20000 nM in each case. For the same molecule, the Selectivity index in data set [7] is over 2222; in data set [9], over 2500.
`Cc1ccnc2c1NC(=O)c1cccnc1N2C1CC1` [NEVIRAPINE]: the pEC50 in [1] is under 4.70; in [2], 7.30; in [5], 4.85; in [10], 7.05; in data set [11], under 4.70; in data set [13], under 4.70. Besides, the ID50 in [15] was 7000 nM; in data set [16], 9000 nM; in data set [18] it was over 20000 nM; in [21] it was 400 nM. The Selectivity index in [19] is over 222. For the same molecule, the CC50 in data set [12] was over 20000 nM.
